Source: patent US11696913B2, “Prolonged ectoparasite-controlling agent for animal” (MITSUI CHEMICALS AGRO, INC., priority 2017, dated 2023)

Assays:
Dermacentor variabilis = assay: In vitro contact test with adult hard ticks (Dermacentor variabilis); conditions: read-out: acaricidal activity; for pest or weed control at 0.2 µg/cm2, 0.2 µg/cm2: dose 0.2 μg/cm^2, 48 h; for pest or weed control at 1 µg/cm2, 1 µg/cm2: dose 1 μg/cm^2, 48 h
Method: (§1) In Vitro Contact Tests with Adult Hard Ticks
(§2) In vitro contact tests with ticks were conducted with adult males and females of Rhipicephalus sanguineus, Ixodes ricinus, or Dermacentor variabilis, or nymphs of Amblyomma americanum.
(§3) For the coating of the test vials, the test substance was dissolved and diluted in acetone p.a. to the desired concentration. The solution was then homogeneously applied to the inner wall and base of a glass vial by turning and rocking on an orbital shaker until complete evaporation of the solvent. For example, with a 900 ppm solution of test substance, an area-based dose of 5 μg/cm^2 was achieved.
(§4) After the solvent was completely evaporated, 5-10 adult ticks were put in each coated test vial, which was then sealed with a perforated plastic lid and incubated in a horizontal position in the dark at room temperature and ambient humidity (Rhipicephalus sanguineus) or in a climate-controlled cabinet (Ixodes ricinus, Dermacentor variabilis, Amblyomma americanum [21° C., 85% rel. hum.]). Acaricidal activity against the respective tick species was determined after 48 h. For this, ticks were collected to the base of the test vial by gentle knocking, and test vials were then incubated on a hotplate at 45-50° C. for no longer than 5 min. Ticks which remained motionless on the base of the test vial or moved uncoordinated without deliberately climbing up to avoid the heat were considered dead or moribund, respectively.
(§5) A substance was judged to have good acaricidal activity against the respective tick species when at least 80% of ticks were found dead or moribund at a dose of the substance of g/cm^2. An acaricidal activity of 100% means all ticks were dead or moribund. An acaricidal activity of 0% means none of the ticks was found dead or moribund.

[1] = test system: Rhipicephalus (Boophilus) microplus; assay: In vitro injection test with Rhipicephalus (Boophilus) microplus (BOOPMI Inj); conditions: 168 h, laid fertile eggs after 7 days, read-out: acaricidal activity; for pest or weed control at 0.00016 mg: dose 0.16 μg/animal injected; for pest or weed control at 0.0008 mg: dose 0.8 μg/animal injected; for pest or weed control at 32 ng: dose 0.032 μg/animal injected
Method: In Vitro Injection Test with Rhipicephalus (Boophilus) Microplus (BOOPMI Inj)
To produce an appropriate mixture for injection, the test substance was dissolved and diluted in dimethyl sulphoxide to the desired concentration. 1 μl of the test mixture was injected into the abdomen of each of 5 engorged adult female cattle ticks (Rhipicephalus (Boophilus) microplus). The ticks were transferred into petri dishes and maintained in a climate-controlled room [28° C., 85% rel. hum.].
Acaricidal activity against cattle ticks was assessed after 7 days by assessment of laid fertile eggs. […] An acaricidal activity of 100% means that none of the ticks laid eggs or laid eggs were infertile; 0% means that the ticks laid eggs, and all the eggs were fertile.

Amblyomma americanum = assay: In vitro contact test with hard ticks (Amblyomma americanum nymphs); conditions: read-out: acaricidal activity; for pest or weed control at 0.2 µg/cm2, 0.2 µg/cm2: dose 0.2 μg/cm^2, 48 h; for pest or weed control at 1 µg/cm2, 1 µg/cm2: dose 1 μg/cm^2, 48 h
Method: as §1, §2, §3, §4, §5

Ctenocephalides felis [2] = assay: In vitro contact test with fleas; conditions: read-out: insecticidal activity; for pest or weed control at 0.04 µg/cm2, 0.04 µg/cm2: dose 0.04 μg/cm^2, dead or moribund fleas after 48 h; for pest or weed control at 0.2 µg/cm2, 0.2 µg/cm2: dose 0.2 μg/cm^2, dead or moribund fleas after 48 h; for pest or weed control at 1 µg/cm2, 1 µg/cm2: dose 1 μg/cm^2, dead or moribund fleas after 48 h
Method: In Vitro Contact Tests with Fleas
In vitro contact tests with fleas were conducted with adult male and female cat fleas (Ctenocephalides felis).
as §3, with “To coat” for “For the coating of”, “tubes,” for “vials,”, “tube” for “vial”
Upon complete evaporation of the solvent, 5-10 adult cat fleas (Ctenocephalides felis) were added to each coated tube, which was then sealed with a perforated plastic lid and incubated in a horizontal position at room temperature and ambient humidity. After 48 h, insecticidal activity against fleas was determined. For this, fleas were collected to the base of the tube by knocking the tube, and the tube was allowed to stand upright. Fleas which remained motionless at the base or moved in an uncoordinated manner were considered dead or moribund, respectively.
A substance was judged to have good insecticidal activity against Ctenocephalides felis when at least 80% of the fleas were found dead or moribund at a dose of the substance of μg/cm^2. 100% insecticidal activity means that all the fleas were found dead or moribund. 0% insecticidal activity means that no fleas were found dead or moribund.

Ixodes ricinus = assay: In vitro contact test with adult hard ticks (Ixodes ricinus); conditions: read-out: acaricidal activity; for pest or weed control at 1 µg/cm2, 1 µg/cm2: dose 1 μg/cm^2, 48 h; for pest or weed control at 5 µg/cm2, 5 µg/cm2: dose 5 μg/cm^2, 48 h
Method: as §1, §2, §3, §4, §5

Ctenocephalides felis [3] = assay: Ctenocephalides felis in-vitro feeding test with fleas (CTECFE oral); conditions: 48 hours, read-out: insecticidal feeding activity; for pest or weed control at 0.0064 ppm: dose 0.0064 ppm in citrated cattle blood; for pest or weed control at 0.032 ppm: dose 0.032 ppm in citrated cattle blood; for pest or weed control at 0.16 ppm: dose 0.16 ppm in citrated cattle blood; for pest or weed control at 0.8 ppm: dose 0.8 ppm in citrated cattle blood; for pest or weed control at 4 ppm: dose 4 ppm in citrated cattle blood
Method: Ctenocephalides felis In-Vitro Feeding Test with Fleas (CTECFE Oral)
To prepare a test blood mixture for feeding fleas, the test substance was dissolved in dimethyl sulphoxide and diluted with citrated cattle blood to the desired concentration.
To assemble the test set-up, about 20 unfed adult male and female cat fleas
(Ctenocephalides felis) were placed in a chamber which was closed at the top and bottom with gauze. A metal cylinder was sealed at one end with parafilm membrane, placed with the sealed base onto the chamber, and filled with the test blood mixture, which could be imbibed by the fleas through the parafilm membrane. The assembled test set-up was maintained at about 37° C. After 48 hours, the insecticidal feeding activity against fleas was determined. 100% means that all of the fleas were killed; 0% means that none of the fleas was killed.

Rhipicephalus sanguineus = assay: In vitro contact test with adult hard ticks (Rhipicephalus sanguineus); conditions: read-out: acaricidal activity; for pest or weed control at 0.04 µg/cm2, 0.04 µg/cm2: dose 0.04 μg/cm^2, 48 h; for pest or weed control at 0.2 µg/cm2, 0.2 µg/cm2: dose 0.2 μg/cm^2, 48 h; for pest or weed control at 1 µg/cm2, 1 µg/cm2: dose 1 μg/cm^2, 48 h
Method: as §1, §2, §3, §4, §5

Row | SMILES | pest or weed control at 0.2 µg/cm2, 0.2 µg/cm2 (Dermacentor variabilis) | pest or weed control at 1 µg/cm2, 1 µg/cm2 (Dermacentor variabilis) | pest or weed control at 0.00016 mg [1] | pest or weed control at 0.0008 mg [1] | pest or weed control at 0.2 µg/cm2, 0.2 µg/cm2 (Amblyomma americanum) | pest or weed control at 1 µg/cm2, 1 µg/cm2 (Amblyomma americanum) | pest or weed control at 0.04 µg/cm2, 0.04 µg/cm2 (Ctenocephalides felis [2]) | pest or weed control at 0.2 µg/cm2, 0.2 µg/cm2 (Ctenocephalides felis [2]) | pest or weed control at 1 µg/cm2, 1 µg/cm2 (Ctenocephalides felis [2]) | pest or weed control at 1 µg/cm2, 1 µg/cm2 (Ixodes ricinus) | pest or weed control at 5 µg/cm2, 5 µg/cm2 (Ixodes ricinus) | pest or weed control at 0.0064 ppm (Ctenocephalides felis [3]) | pest or weed control at 0.032 ppm (Ctenocephalides felis [3]) | pest or weed control at 0.16 ppm (Ctenocephalides felis [3]) | pest or weed control at 0.8 ppm (Ctenocephalides felis [3]) | pest or weed control at 4 ppm (Ctenocephalides felis [3]) | pest or weed control at 0.04 µg/cm2, 0.04 µg/cm2 (Rhipicephalus sanguineus) | pest or weed control at 0.2 µg/cm2, 0.2 µg/cm2 (Rhipicephalus sanguineus) | pest or weed control at 1 µg/cm2, 1 µg/cm2 (Rhipicephalus sanguineus) | pest or weed control at 32 ng [1] | further results
1 | N#Cc1ccc(C(=O)Nc2cccc(C(=O)Nc3c(Br)cc(C(F)(C(F)(F)F)C(F)(F)F)cc3C(F)(F)F)c2F)cc1 [Compound 16] | 90% | 90% | 100% | 100% | 90% | 90% | 95% | 95% | 95% | 90% | 90% | 95% | 95% | 95% | 95% | 95% | 90% | 90% | 90% |  | pest or weed control at 0.2 µg/cm2, 0.2 µg/cm2 (Ixodes ricinus; dose 0.2 μg/cm^2, 48 h): 90%
2 | CN(C(=O)c1ccc(F)cc1)c1cccc(C(=O)Nc2c(Br)cc(C(F)(C(F)(F)F)C(F)(F)F)cc2C(F)(F)F)c1F [Compound 26] | 90% | 90% | 100% | 100% | 90% | 90% | 95% | 95% | 95% | 90% | 90% |  |  |  | 95% | 95% |  |  | 90% | 100% | 
3 | O=C(Nc1cccc(C(=O)Nc2c(Br)cc(C(F)(C(F)(F)F)C(F)(F)F)cc2C(F)(F)F)c1F)c1ccc(F)cc1 [Compound 29] | 90% | 90% |  |  | 90% | 90% |  | 95% | 95% |  | 90% |  |  |  | 95% | 95% | 90% | 90% | 90% |  | 
4 | N#Cc1ccc(C(=O)Nc2cccc(C(=O)Nc3c(I)cc(C(F)(C(F)(F)F)C(F)(F)C(F)(F)F)cc3C(F)(F)F)c2F)cc1 (stereo not shown) [Compound 34] | 90% | 90% | 100% | 100% | 90% | 90% |  | 95% | 95% | 90% | 90% | 95% | 95% | 95% | 95% | 95% |  | 90% | 90% | 100% | pest or weed control at 0.04 µg/cm2, 0.04 µg/cm2 (Dermacentor variabilis; dose 0.04 μg/cm^2, 48 h): 90%; pest or weed control at 6.4 ng ([1]; dose 0.0064 μg/animal injected): 100%
